As usually defined, the MTD is the largest dose that counted as tolerated. Lower therefore signals poorer tolerability. For orientation: half-life means how long it takes for the measured level to halve.

Consider 3 compounds from US7868135B2, “Compositions of lipopeptide antibiotic derivatives and methods of use thereof” (priority 2003, dated 2011).

Data set [1] deals with E. faecalis EFS0040 (clinical isolate). In words: Intraperitoneal murine model of protection against infection (ED50, Table 21). Type of data set: in vivo, Enterococcus faecalis. The conditions noted are these: Swiss CD1 mice infected i.p., compound i.v. From the text: (§1) A variety of in vivo models may be used to assess the antimicrobial properties of lipopeptide derivative compounds of this disclosure. For example, antimicrobial compounds of the instant disclosure may be tested for efficacy by measuring a compound's ability to protect a mouse against a microbial infection, such as an infection or disease caused by or related to Gram-positive bacteria, including Staphylococcus aureus, Streptococcus pneumoniae, and Enterococcus faecalis. […] A certain period after infection, mice are then individually treated, for example intravenously (i.v.), with a lipopeptide derivative of this disclosure.
(§2) Antimicrobial lipopeptide derivatives of the instant invention were tested for antimicrobial activity against Gram-positive bacteria in an intraperitoneal (i.p.) murine model (i.e., bacteria were injected i.p. and lipopeptide compounds were administered intravenously (i.v.)). Mice were infected with Staphylococcus aureus, Streptococcus pneumoniae, or Enterococcus faecalis, which were prepared as follows: S. aureus Smith (SAU0017, ATCC 19636) were grown in culture overnight on trypticase soy broth, harvested and then resuspended in fresh media containing 5% mucin (Sigma Chemical Co.); S. pneumoniae (SPN 0032, ATCC 10813) were grown overnight on blood agar plates and re-suspended in 0.9% sterile saline; and E. faecalis EFS0040 (clinical isolate) were grown overnight in culture on blood heart infusion broth, washed and resuspended in 0.9% saline and mixed with equal volume of sterile fecal rat extract. Swiss CD1 mice were each infected i.p. with bacteria at the following doses: S. aureus at 10^6 CFU/mouse; S. pneumoniae at 10^2 CFU/mouse; or E. faecalis at 10^7.5 CFU/mouse. […] The ED50 for each compound was calculated using the method of Reed and Meunch (Am. J. Hyg. 27: 493, 1938).

The nature of data set [2]: Acute toxicity, maximum tolerated dose (MTD). The settings on record: Swiss CD1, mouse, in vivo, iv. On the procedure: Another measure of toxicity is the maximum tolerated dose (MTD), which is determined as a dose level that is not accompanied by mortality or life-threatening toxicity. The dose ratio between toxic and therapeutic effect is the therapeutic index. […] The data obtained from these cell culture assays and animal studies can be used in formulating a dosage range that is not toxic for use in human subjects. […] The dosage may vary within this range depending upon the dosage form employed and the route of administration utilized. The exact formulation, route of administration and dosage can be chosen by the individual physician in view of the patient's condition or need thereof (see, e.g., Fingl et al., 1975, In: The Pharmacological Basis of Therapeutics, Chapter 1).
For example, to examine acute toxicity, lipopeptide antibiotics of the invention can be tested in an animal model, such as Swiss CD1 mice, to determine the MTD. In certain embodiments, the animals used to test toxicity of a particular compound can be approximately 5-6 weeks old at the start of the experiment and weigh 22-26 g. The lipopeptides may be administered intravenously (i.v.) into, for example, the caudal tail vein at dose levels that range from about 50 to about 500 mg/kg, or from about 75 to about 250 mg/kg, or from about 100 to about 200 mg/kg, or at a dose range at or below 100 mg/kg. The animals are generally observed immediately after administration, 1-2 hours post administration, 5-8 hours post administration, and once daily thereafter. Observations include both the activity level of the mouse as well as any physical side effects from the administered dose. The animal weight is recorded on day 0 (immediately before dosing) and on day 7.

In data set [3] the test system is Staphylococcus aureus. Type of data set: cell-based. The conditions noted are these: for Post Antibiotic Effect (hours) 0.5 × MIC: exposure one hour at 0.5 × MIC, S. aureus log phase; for Post Antibiotic Effect (hours) 1 × MIC: exposure one hour at 1 × MIC; for Post Antibiotic Effect (hours) 2 × MIC: exposure one hour at 2 × MIC; for Post Antibiotic Effect (hours) 4 × MIC: exposure one hour at 4 × MIC. On the procedure:
An exemplary pharmacokinetic parameter to aid in characterizing the properties of lipopeptide derivative compounds of the disclosure is post-antibiotic effect (PAE) of a lipopeptide derivative. For example, a bacterial culture with an initial count of 10^6 to 10^7 colony forming units per ml (CFU/ml) is treated with a certain concentration of lipopetide derivative for a certain time and a parallel (control) culture is left untreated. After treatment, the lipopetide derivative is removed from the culture (e.g., by dilution 1:1000 in fresh, lipopetide derivative-free medium), and the untreated culture is manipulated in the same way. Then the cultures are further incubated and monitored for bacterial growth over time. […] By way of background and not wishing to be bound by theory, a lipopeptide derivative having a measurable PAE activity will likely provide additional time for the host immune system to remove bacteria that might have survived antibiotic treatment and reproduced after the antibiotic is degraded, removed or filtered from the circulatory system. A longer PAE can influence the clinical outcome of antimicrobial therapy (i.e., a lower dose of a lipopetide derivative may be used to treat an infection or the frequency of a dosing regimen can be reduced).
After removal of the lipopeptide compounds, bacterial titre was determined each hour to monitor bacterial re-growth. The PAE duration is defined as the difference in time required for antimicrobial exposed bacterial cells versus unexposed bacterial cells to achieve an increase of 1 log10 unit in CFU/mL.

Data set [4] can be described thus: in vivo. The conditions noted are these: male, Sprague Dawley, rat, plasma, iv, 10 mg/kg. Here is the method: Yet other exemplary in vivo models can be used to characterize the pharmacokinetics and pharmacodynamic parameters of antimicrobial compounds of this disclosure. Some parameters that can be measured include an in vivo half-life of a compound, elimination rate and clearance, volume of distribution, and bioavailability. For example, briefly, compounds can be administered as a single i.v. or oral (p.o.) dose in mice or rats. At various time points (ranging from 1 minute to 72 hours), blood from treated animals is collected and the concentration of lipopeptide derivative in the ex vivo plasma can be quantified by, for example, liquid chromatography with mass spectrometric detection (LC/MS). After quantification, pharmacokinetics parameters can be calculated using methods known in the art, such as a one compartment model with mono-exponential decay and linear regression analysis (see, e.g., Fantin et al., Antimicrob. Agents Chemotherap. 35: 1413. 1991).
A pharmacokinetic parameter that can be measured, and which aids in determining efficacy, after a single i.v. administration of an antimicrobial lipopeptide derivative of the instant disclosure is the systemic half-life of the compound. Briefly, test compounds were dissolved in a 5% mannitol solution (pH was then adjusted) to a concentration of 1 mg/mL (w/v). A single intravenous injection in the lateral caudal vein of Swiss CD1 mice (5 to 6 weeks old, female) or Sprague Dawley rats (male) was used to administer the lipopeptide derivative at a final dose of 10 mg/kg. At various time points (ranging from about 4 minutes to about 24 hours for mice, and 48 or 72 hours for rats) mice were sacrificed and blood was harvested. The concentration of lipopeptide derivative in ex vivo plasma was quantified using liquid chromatography (LC) with mass spectrometric detection (MS).

The test system of data set [5] is S. pneumoniae (SPN 0032, ATCC 10813). The data set can be described thus: Intraperitoneal murine model of protection against infection (ED50, Table 21). The data set is classed as in vivo, Streptococcus pneumoniae. The settings on record: Swiss CD1 mice infected i.p., compound i.v.
From the text: as §1, §2

With `CCCCCCCCCCCCCCC(=O)NC(CC(=O)O)C(=O)NC1C(=O)N2CCCCC2C(=O)NC(C(C)C(=O)O)C(=O)NC(CC(=O)O)C(=O)NCC(=O)NC(CC(=O)O)C(=O)NCC(=O)NC(C(C)NC(=O)CN(C)C(=O)[C@@H](N)CCCCN)C(=O)NC(C(C)C)C(=O)N2CCCC2C(=O)NC1C` (some centres unmarked) [Compound 199, C15-Amphomycin-9-Sar-Lys], in data set [1], the “ED50 in Mice, E. faecalis (EFS0040)” value is 3 mg/kg. Besides, the MTD at 7 days in data set [2] fell in the range of 200 to 400 mg/kg.

Consider `CCCCCCCCCCCCCCC(=O)NC(CC(=O)O)C(=O)NC1C(=O)N2CCCCC2C(=O)NC(C(C)C(=O)O)C(=O)NC(CC(=O)O)C(=O)NCC(=O)NC(CC(=O)O)C(=O)NCC(=O)NC(C(C)NC(=O)CNC(=O)[C@@H](N)CCCCN)C(=O)NC(C(C)C)C(=O)N2CCCC2C(=O)NC1C` (some centres unmarked) [Compound 4, C15-Amphomycin-9-Gly-Lys], for which, in data set [3], the “MIC used for the PAE experiment” value is 1 µg/mL, the “Post Antibiotic Effect (hours) 0.5 × MIC” value turned out to be 0.6 h, the “Post Antibiotic Effect (hours) 1 × MIC” value is 0.7 h and the “Post Antibiotic Effect (hours) 2 × MIC” value stood at 1.9 h. The “Post Antibiotic Effect (hours) 4 × MIC” value in data set [3] is 3.0 h. Further, in data set [4], the half-life was found to be 1.09 h. Also, the MTD at 7 days in data set [2] is 200 to 400 mg/kg.

In the case of `CCCCCCCCCCCCCCC(=O)NC(CC(=O)O)C(=O)NC1C(=O)N2CCCCC2C(=O)NC(C(C)C(=O)O)C(=O)NC(CC(=O)O)C(=O)NCC(=O)NC(CC(=O)O)C(=O)NCC(=O)NC(C(C)NC(=O)CCN)C(=O)NC(C(C)C)C(=O)N2CCCC2C(=O)NC1C` (stereo not drawn) [Compound 147, C15-Amphomycin-9-(β-Ala)], in data set [3], the “MIC used for the PAE experiment” value was found to be 1 µg/mL, the “Post Antibiotic Effect (hours) 0.5 × MIC” value stood at 1.6 h, the “Post Antibiotic Effect (hours) 1 × MIC” value turned out to be 1.6 h and the “Post Antibiotic Effect (hours) 2 × MIC” value worked out at 1.9 h. Also, the “Post Antibiotic Effect (hours) 4 × MIC” value in data set [3] is 1.0 h. Besides, the half-life in data set [4] was 4.58 h. Further, the “ED50 in Mice, E. faecalis (EFS0040)” value in data set [1] is 0.8 mg/kg. Besides, the “ED50 in Mice, S. pneumoniae (SPN0032)” value in data set [5] came out at 0.65 mg/kg.
